Test results taken from BindingDB's records for doi:10.1124/jpet.104.078303 (Abbott Laboratories, 2005).
Where “and” joins values, the source holds several entries; their conditions need not be identical. Equal values may be shown once.

What was measured:
Histamine H3 receptor [1] = molecular target: Histamine H3 receptor (Homo sapiens, UniProt Q9Y5N1)
Histamine H4 receptor = Histamine H4 receptor (Homo sapiens, UniProt Q9H3N8)
Histamine H1 receptor = Histamine H1 receptor (Homo sapiens, UniProt P35367)
Chain of Histamine H1 receptor (P35367 whole entry): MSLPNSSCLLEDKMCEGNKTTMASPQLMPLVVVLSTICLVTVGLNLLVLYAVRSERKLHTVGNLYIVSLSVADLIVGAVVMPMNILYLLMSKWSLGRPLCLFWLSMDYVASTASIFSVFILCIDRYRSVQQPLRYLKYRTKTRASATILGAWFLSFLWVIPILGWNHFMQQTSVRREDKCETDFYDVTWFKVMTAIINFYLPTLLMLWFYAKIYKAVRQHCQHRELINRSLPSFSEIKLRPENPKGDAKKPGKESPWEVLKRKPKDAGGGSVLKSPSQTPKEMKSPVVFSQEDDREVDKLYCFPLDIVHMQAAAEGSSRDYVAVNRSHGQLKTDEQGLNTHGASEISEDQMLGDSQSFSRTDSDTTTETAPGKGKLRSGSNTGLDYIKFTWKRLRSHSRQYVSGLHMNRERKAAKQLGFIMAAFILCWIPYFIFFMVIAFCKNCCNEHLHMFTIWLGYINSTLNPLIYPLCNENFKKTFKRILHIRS

Histamine H2 receptor = Histamine H2 receptor (Homo sapiens, UniProt P25021)
Chain of Histamine H2 receptor (P25021 whole entry): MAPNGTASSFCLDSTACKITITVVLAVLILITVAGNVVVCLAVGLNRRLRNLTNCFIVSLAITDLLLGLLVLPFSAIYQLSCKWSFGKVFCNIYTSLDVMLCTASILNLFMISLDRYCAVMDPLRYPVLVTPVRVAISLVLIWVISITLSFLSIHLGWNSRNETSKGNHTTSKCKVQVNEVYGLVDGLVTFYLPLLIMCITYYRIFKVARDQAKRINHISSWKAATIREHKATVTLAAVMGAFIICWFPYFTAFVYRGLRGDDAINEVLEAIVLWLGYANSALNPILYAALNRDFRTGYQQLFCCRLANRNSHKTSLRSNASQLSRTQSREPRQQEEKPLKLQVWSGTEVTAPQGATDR

Histamine receptor H3 = Histamine receptor H3 (Canis lupus familiaris, UniProt Q865E3)
Chain of Histamine receptor H3 (Q865E3 whole entry): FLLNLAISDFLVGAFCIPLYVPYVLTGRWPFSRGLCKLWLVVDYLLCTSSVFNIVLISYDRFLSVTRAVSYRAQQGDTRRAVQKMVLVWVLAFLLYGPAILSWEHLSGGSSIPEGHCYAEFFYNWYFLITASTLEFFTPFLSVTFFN

Histamine H3 receptor [2] = molecular target: Histamine H3 receptor (Cavia porcellus, UniProt Q9JI35)
Chain of Histamine H3 receptor (Cavia porcellus, UniProt Q9JI35) (Q9JI35 whole entry): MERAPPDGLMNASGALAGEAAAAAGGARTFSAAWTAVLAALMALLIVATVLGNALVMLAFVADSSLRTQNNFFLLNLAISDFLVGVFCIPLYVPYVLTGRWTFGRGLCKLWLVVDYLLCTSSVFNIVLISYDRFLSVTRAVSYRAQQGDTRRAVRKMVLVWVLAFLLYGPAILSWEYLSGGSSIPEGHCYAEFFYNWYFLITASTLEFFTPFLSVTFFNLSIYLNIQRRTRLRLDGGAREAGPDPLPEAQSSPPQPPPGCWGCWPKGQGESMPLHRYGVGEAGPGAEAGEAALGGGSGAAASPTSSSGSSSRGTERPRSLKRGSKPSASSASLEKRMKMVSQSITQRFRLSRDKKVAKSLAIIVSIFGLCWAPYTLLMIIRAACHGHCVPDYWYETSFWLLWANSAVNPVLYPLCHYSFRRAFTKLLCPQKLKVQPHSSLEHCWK

Hrh3 protein = Hrh3 protein (Rattus norvegicus, UniProt Q5PPG3)
Chain of Hrh3 protein (Q5PPG3 whole entry): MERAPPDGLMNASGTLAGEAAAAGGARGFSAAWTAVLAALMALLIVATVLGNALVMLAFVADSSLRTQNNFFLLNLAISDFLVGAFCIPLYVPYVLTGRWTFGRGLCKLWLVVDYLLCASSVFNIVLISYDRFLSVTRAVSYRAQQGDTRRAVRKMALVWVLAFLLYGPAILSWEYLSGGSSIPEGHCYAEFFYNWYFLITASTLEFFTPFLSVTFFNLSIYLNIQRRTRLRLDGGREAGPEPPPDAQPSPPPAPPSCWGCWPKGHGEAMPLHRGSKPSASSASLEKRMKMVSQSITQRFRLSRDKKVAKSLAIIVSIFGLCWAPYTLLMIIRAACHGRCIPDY

Chain of Histamine H3 receptor (Homo sapiens, UniProt Q9Y5N1) (Q9Y5N1 whole entry): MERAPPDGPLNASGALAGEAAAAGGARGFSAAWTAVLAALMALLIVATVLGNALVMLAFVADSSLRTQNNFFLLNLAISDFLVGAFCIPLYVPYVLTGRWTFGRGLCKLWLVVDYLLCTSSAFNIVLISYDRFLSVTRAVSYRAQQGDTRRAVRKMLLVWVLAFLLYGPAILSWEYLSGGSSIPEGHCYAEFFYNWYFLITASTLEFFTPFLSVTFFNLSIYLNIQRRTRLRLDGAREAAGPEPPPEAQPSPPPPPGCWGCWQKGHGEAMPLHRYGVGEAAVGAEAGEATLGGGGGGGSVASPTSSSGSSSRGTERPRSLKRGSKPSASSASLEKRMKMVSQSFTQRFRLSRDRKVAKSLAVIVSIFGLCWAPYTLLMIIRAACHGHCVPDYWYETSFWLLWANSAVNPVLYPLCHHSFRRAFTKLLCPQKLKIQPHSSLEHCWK
Chain of Histamine H4 receptor (Q9H3N8 whole entry): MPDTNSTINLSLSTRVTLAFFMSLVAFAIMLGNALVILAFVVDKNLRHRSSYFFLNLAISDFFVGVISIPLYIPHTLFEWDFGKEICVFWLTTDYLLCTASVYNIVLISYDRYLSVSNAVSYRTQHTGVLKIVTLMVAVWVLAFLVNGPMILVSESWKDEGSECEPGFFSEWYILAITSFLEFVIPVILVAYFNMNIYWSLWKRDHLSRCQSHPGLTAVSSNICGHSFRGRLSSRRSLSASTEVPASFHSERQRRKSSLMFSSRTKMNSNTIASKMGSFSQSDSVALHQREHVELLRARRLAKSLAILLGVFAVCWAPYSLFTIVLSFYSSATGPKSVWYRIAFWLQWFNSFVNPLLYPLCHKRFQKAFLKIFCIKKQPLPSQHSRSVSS

Q: What does the source list for `CC(C)(C)CCC#C[C@@H]1C[C@H]1c1c[nH]cn1`?
A: Ki (Histamine H3 receptor [1]): 5.25 nM and 12.3 nM; Ki (Histamine H4 receptor): 51.3 nM; Ki (Histamine H1 receptor): > 10000 nM; Ki (Histamine H2 receptor): > 10000 nM; Ki (Histamine receptor H3): 1.32 nM; Ki (Histamine H3 receptor [2]): 0.63 nM; Ki (Hrh3 protein): 0.11 nM and 0.25 nM

Q: Which results are given for `C[C@@H]1CC[C@@H](C)N1CCCOc1ccc(-c2ccc(C(=O)N3CCOCC3)cc2)cc1` [(4'-(3-((2R,5R)-2,5-dimethylpyrrolidin-1-yl)propoxy)biphenyl-4-yl)(morpholino)methanone]?
A: Ki (Histamine H3 receptor [1]): 0.41 nM and 0.43 nM; Ki (Histamine H4 receptor): > 10000 nM; Ki (Histamine H2 receptor): > 10000 nM; Ki (Histamine receptor H3): 1.2 nM; Ki (Histamine H3 receptor [2]): 0.55 nM; Ki (Hrh3 protein): 1.66 nM and 1.45 nM

Q: With `C[C@@H]1CCCN1CCc1cc2cc(-c3ccc(C#N)cc3)ccc2o1` [(R)-4-(2-(2-(2-methylpyrrolidin-1-yl)ethyl)benzofuran-5-yl)benzonitrile] as the compound, how does the Ki (Histamine H4 receptor) read?
A: The Ki was > 10000 nM.

Q: And the Ki (Histamine H1 receptor)?
A: The Ki was 1620 nM.

Q: What about the Ki (Histamine H2 receptor) of the same compound?
A: Its Ki is 6760 nM.

Q: And the Ki (Histamine receptor H3)?
A: The Ki was 3.89 nM.

Q: And the Ki (Hrh3 protein)?
A: Its Ki is 1.23 nM and 3.24 nM.
